In patent US8518947B2, “(Heterocycle/tetrahydropyridine)-(piperazinyl)-1-alcanone and (heterocycle/dihydropyrrolidine)-(piperazinyl)-1-alcanone derivatives, and use thereof as p75 inhibitors” (Sanofi, priority 2009, dated 2013):
Where a name gives a salt, the structure may show the parent alone.

Row | melting point [°C] | Structure (SMILES)
1 | 112 to 113 | O=C(CN1CC2CCC(C1)N2c1ncc(F)cn1)N1CC=C(c2cccc3ccsc23)CC1
2 | 178 to 180 | Cn1nnnc1-c1ccc(N2C3CCC2CN(CC(=O)N2CC=C(c4cccc5ccoc45)CC2)C3)nc1
3 | 177 to 179 | Cc1cc2cc(C3=CCN(C(=O)CN4CC5CCC(C4)N5c4ncc(F)cn4)CC3)ccc2s1
4 | 157 to 158 | O=C(CN1CC2CCC(C1)N2c1ncc(F)cn1)N1CC=C(c2cccc3ccoc23)CC1
5 | 163 to 165 | O=C(CN1CC2CCC(C1)N2c1ncc(F)cn1)N1CC=C(c2ccc3c(c2)OCCO3)CC1
6 | 167 to 168 | O=C(CN1CC2CCC(C1)N2c1ncc(F)cn1)N1CC=C(c2nccc3sccc23)CC1
7 | 207 to 210 | O=C(CN1CC2CCC(C1)N2c1ncc(F)cn1)N1CC=C(c2coc3ccccc23)CC1
8 | 172 to 174 | O=C(CN1CC2CCC(C1)N2c1ncc(F)cn1)N1CC=C(c2csc3ccccc23)CC1
9 | 158 to 159 | COC(=O)c1ccc(N2C3CCC2CN(CC(=O)N2CC=C(c4cccc5ccoc45)CC2)C3)nc1
10 | 153 to 154 | COC(=O)c1ccc(N2C3CCC2CN(CC(=O)N2CC=C(c4cccc5ccsc45)CC2)C3)nc1
11 | 150 to 151 | COC(=O)c1ccc(N2C3CCC2CN(CC(=O)N2CC=C(c4ccc5sccc5c4)CC2)C3)nc1
12 | 170 to 171 | COC(=O)c1ccc(N2C3CCC2CN(CC(=O)N2CC=C(c4nccc5sccc45)CC2)C3)nc1
13 | 179 to 180 | COC(=O)c1ccc(N2C3CCC2CN(CC(=O)N2CC=C(c4ccc5sc(C)cc5c4)CC2)C3)nc1
14 | 159 to 160 | O=C(O)c1ccc(N2C3CCC2CN(CC(=O)N2CC=C(c4nccc5sccc45)CC2)C3)nc1
15 | 160 to 161 | Cc1cc2cc(C3=CCN(C(=O)CN4CC5CCC(C4)N5c4ccc(C(=O)O)cn4)CC3)ccc2s1
16 | 169 to 170 | COC(=O)c1ccc(N2C3CCC2CN(CC(=O)N2CC=C(c4cccc5ccoc45)C2)C3)nc1
17 | 172 to 173 | COC(=O)c1ccc(N2C3CCC2CN(CC(=O)N2CC=C(c4cccc5ccsc45)C2)C3)nc1
18 | 188 to 189 | O=C(O)c1ccc(N2C3CCC2CN(CC(=O)N2CC=C(c4cccc5ccoc45)C2)C3)nc1
19 | 189 to 190 | O=C(O)c1ccc(N2C3CCC2CN(CC(=O)N2CC=C(c4cccc5ccsc45)C2)C3)nc1

Row | melting point [°C] | Structure (SMILES)
20 | 172 to 174 | COC(=O)c1ccc(N2C3CCC2CN(CC(=O)N2CC=C(c4ccc5c(c4)OCCO5)CC2)C3)nc1
21 | 230 to 232 | O=C(CN1CC2CCC(C1)N2c1ccc(-c2noc(=O)[nH]2)cn1)N1CC=C(c2cccc3ccoc23)CC1
22 | 171 to 172 | Cc1cc2cc(C3=CCN(C(=O)CN4CC5CCC(C4)N5c4ccc(C#N)cn4)CC3)ccc2s1
23 | 121 to 123 | O=C(CN1CC2CCC(C1)N2c1cccnc1)N1CC=C(c2cccc3ccoc23)CC1
24 | 184 to 185 | N#Cc1ccc(N2C3CCC2CN(CC(=O)N2CC=C(c4cccc5ccoc45)CC2)C3)nc1
25 | 153 to 154 | Cc1cc2cc(C3=CCN(C(=O)CN4CC5CCC(C4)N5c4ccc(C(=O)OC5CCC5)cn4)CC3)ccc2s1
26 | 192 to 193 | C[C@@H]1CN(c2ccc3ccccc3n2)C[C@H](C)N1CC(=O)N1CC=C(c2cccc3ccsc23)CC1 (as salt: HCl) [Compound 19, 1-(4-benzo[b]thiophen-7-yl-3,6-dihydro-2H-pyridin-1-yl)-2-((2S,6R)-2,6-dimethyl-4-quinolin-2-ylpiperazin-1-yl)ethanone]
27 | 174 to 175 | C[C@@H]1CN(c2ncc(F)cn2)C[C@H](C)N1CC(=O)N1CC=C(c2cccc3ccoc23)CC1 (as salt: HCl) [Compound 36, 1-(4-benzofuran-7-yl-3,6-dihydro-2H-pyridin-1-yl)-2-[(2S,6R)-4-(5-fluoropyrimidin-2-yl)-2,6-dimethylpiperazin-1-yl]ethanone]
28 | 225 to 226 | C[C@@H]1CN(c2ccc(C(F)(F)F)nc2)C[C@H](C)N1CC(=O)N1CC=C(c2cccc3ccsc23)CC1 (as salt: HCl) [Compound 54, 1-(4-benzo[b]thiophen-7-yl-3,6-dihydro-2H-pyridin-1-yl)-2-[(2S,6R)-2,6-dimethyl-4-(6-trifluoromethylpyridin-3-yl)piperazin-1-yl)ethanone]
29 | 208 to 210 | COC(=O)c1ccc(N2C[C@@H](C)N(CC(=O)N3CC=C(c4cccc5ccsc45)CC3)[C@@H](C)C2)nc1 (as salt: HCl) [Compound 58, Methyl 6-{(3S,5R)-4-[2-(4-benzo[b]thiophen-7-yl-3,6-dihydro-2H-pyridin-1-yl)-2-oxoethyl]-3,5-dimethylpiperazin-1-yl}nicotinate]
30 | 138 to 141 | COC(=O)c1cc2cccc(C3=CCN(C(=O)CN4[C@H](C)CN(c5ccc(C(F)(F)F)cn5)C[C@@H]4C)CC3)c2s1 (as salt: HCl) [Compound 66, Methyl 7-(1-{2-[(2S,6R)-2,6-dimethyl-4-(5-trifluoromethylpyridin-2-yl)piperazin-1-yl]acetyl}-1,2,3,6-tetrahydropyridin-4-yl)benzo[b]thiophene-2-carboxylate]
31 | 95 to 96 | O=C(CN1CC2CCC(C1)N2c1ncc(F)cn1)N1CC=C(c2c[nH]c3cc(F)ccc23)CC1 (as salt: oxalate)
32 | 90 to 91 | C[C@@H]1CN(c2ncc(F)cn2)C[C@H](C)N1CC(=O)N1CC=C(c2ccc3c(c2)OCCO3)CC1 (as salt: oxalate) [Compound 44, 1-[4-(2,3-dihydrobenzo[1,4]dioxin-6-yl)-3,6-dihydro-2H-pyridin-1-yl]-2-[(2S,6R)-4-(5-fluoropyrimidin-2-yl)-2,6-dimethylpiperazin-1-yl]ethanone]
33 | 100 to 101 | O=C(CN1CCCN(c2cccnc2)CC1)N1CC=C(c2cccc3ccoc23)CC1 (as salt: oxalate) [Compound 78, 1-(4-benzofuran-7-yl-3,6-dihydro-2H-pyridin-1-yl)-2-(4-pyridin-3-yl-[1,4]diazepan-1-yl)ethanone]
34 | 99 to 100 | O=C(CN1CCN(c2ccnc3cc(Cl)ccc23)CC1)N1CC=C(c2cccc3ccoc23)CC1 (as salt: oxalate) [Compound 99, 1-(4-benzofuran-7-yl-3,6-dihydro-2H-pyridin-1-yl)-2-[4-(7-chloroquinolin-4-yl)piperazin-1-yl]ethanone]
35 | 140 to 145 | C[C@@H]1CN(c2ccc(-c3nccs3)cn2)C[C@H](C)N1CC(=O)N1CC=C(c2cccc3ccoc23)CC1 (as salt: oxalate) [Compound 119, 1-(4-benzofuran-7-yl-3,6-dihydro-2H-pyridin-1-yl)-2-[(2S,6R)-2,6-dimethyl-4-(5-thiazol-2-ylpyridin-2-yl)piperazin-1-yl]ethanone]
36 | 165 to 170 | C[C@@H]1CN(c2ccc(-c3nnn(C)n3)cn2)C[C@H](C)N1CC(=O)N1CC=C(c2cccc3ccoc23)CC1 (as salt: oxalate) [Compound 120, 1-(4-benzofuran-7-yl-3,6-dihydro-2H-pyridin-1-yl)-2-{(2S,6R)-2,6-dimethyl-4-[5-(2-methyl-2H-tetrazol-5-yl)pyridin-2-yl]piperazin-1-yl}ethanone]
37 | 121 to 122 | O=C(O)c1ccc(N2C3CCC2CN(CC(=O)N2CC=C(c4cccc5ccsc45)CC2)C3)nc1 [71]
